Results on six compounds are retold here after publication doi:10.1101/2025.01.28.635346v1 (bioRxiv, 2025).

As usually defined, the IC50 is the midpoint of a concentration-inhibition curve. For orientation: CL/F means clearance divided by bioavailability, as obtained after extravascular dosing. Usually Cmax stands for the highest concentration seen after dosing. Usually Tmax stands for the time at which the peak concentration occurs. By AUC(0-t) is commonly meant exposure summed from dosing to a finite time, without extrapolation to infinity. A higher AUC(0-t) goes with more exposure. By Vd/F is commonly meant the apparent distribution volume after extravascular dosing. By half-life is commonly meant the time needed for the level to fall by half in the phase considered. Read a low half-life as rapid decline.

Where two headings read alike, the source gives them in different places. Bridge positions count the residues as written; N and C are the ends. Side chains are listed from the residue outwards. Peptide text beside a SMILES is read from it. * marks the point of attachment. Butanoyl(4-(4-I-phenyl)) = O=C(CCCc1ccc(I)cc1)*; PEG2 = NCCOCCOCCC(=O)O

One data set has as its target integrin αvβ8 (Homo sapiens, UniProt P06756+P26012). Briefly: ELISA competition assay, integrin αvβ8 binding to LAP. (In an ELISA, binding on a coated surface is turned into a signal by an enzyme label.)
The next data set concerns the target integrin αvβ6 (Homo sapiens, UniProt P06756+P18564). Briefly: ELISA competition assay, integrin αvβ6 binding to LAP.
Data set [1] can be described thus: Pharmacokinetics in female Balb/c mice. The class given is in vivo, mouse.
Setting [2] is: αvβ6 IC50, ELISA competition vs LAP, mean, n ≥ 3.
[3] abbreviates: Table S3E, IP 10 mg/kg, mouse, animal 1F001.
Where [4] appears, read: Table S3E, IP 10 mg/kg, mouse, animal 1F002.
Setting [5] is: Table S3E, IP 10 mg/kg, mouse, animal 1F003.
The mark [6] stands for this setting: Table S3E, IP 10 mg/kg, mouse, animal 1F005.
Where [7] appears, read: female, Balb/c, mouse, plasma, ip, 10 mg/kg.

Turning to `CC[C@H](C)[C@H](NC(=O)[C@H](CC(C)C)NC(=O)[C@H](CC(=O)O)NC(=O)CNC(=O)[C@H](CCCNC(=N)N)NC(=O)[C@@H](NC(=O)[C@H](Cc1ccccc1)NC(=O)[C@H](Cc1ccc(O)cc1)NC(=O)[C@@H]1CCC(=O)NCC(=O)NCC(=O)N[C@@H](CCC(=O)O)C(=O)NCC(=O)N[C@@H](Cc2c[nH]cn2)C(=O)N[C@@H](C(C)C)C(=O)N2CCC[C@H]2C(=O)N1)C(C)C)C(=O)N[C@@H](CO)C(=O)N[C@@H](Cc1ccccc1)C(=O)N[C@@H](Cc1ccc(O)cc1)C(=O)NCC(=O)O` [lassotide 29] (GGEGHVPEYFVRGDLISFYG-OH; lactam N-8; C-terminus assumed), the half-inhibitory concentration (IC50) at integrin αvβ8 was 47 nM; on integrin αvβ6 (setting [2]), 104 nM.
As to `CC[C@H](C)[C@@H]1NC(=O)[C@H](CO)NC(=O)CNC(=O)[C@H](CCCNC(=N)N)NC(=O)CNC(=O)CNC(=O)CC[C@@H](C(=O)N[C@@H](Cc2ccc(O)cc2)C(=O)N[C@@H](Cc2ccccc2)C(=O)N[C@@H](CCC(N)=O)C(=O)N[C@@H](CCCNC(=N)N)C(=O)NCC(=O)N[C@@H](CC(=O)O)C(=O)N[C@@H](CC(C)C)C(=O)N[C@@H](CCC(N)=O)C(=O)N[C@@H](CO)C(=O)N[C@@H](Cc2ccccc2)C(=O)N[C@@H](Cc2ccc(O)cc2)C(=O)NCC(=O)O)NC(=O)[C@@H]2CCCN2C1=O` [lassotide 44] (GGRGSIPEYFQRGDLQSFYG-OH; lactam N-8; C-terminus assumed), on integrin αvβ6, the IC50 came out at 1.4 nM.
In the case of `CC[C@H](C)[C@H](NC(=O)[C@H](CC(C)C)NC(=O)[C@H](CC(=O)O)NC(=O)CNC(=O)[C@H](CCCNC(=N)N)NC(=O)[C@@H](NC(=O)[C@H](Cc1ccccc1)NC(=O)[C@H](Cc1ccc(O)cc1)NC(=O)[C@@H]1CCC(=O)NCC(=O)NCC(=O)N[C@@H](CC(C)C)C(=O)NCC(=O)N[C@@H](Cc2c[nH]cn2)C(=O)N[C@@H](C(C)C)C(=O)N2CCC[C@H]2C(=O)N1)C(C)C)C(=O)N[C@@H](CO)C(=O)N[C@@H](Cc1ccccc1)C(=O)N[C@@H](Cc1ccc(O)cc1)C(=O)NCC(=O)O` [lassotide 32] (GGLGHVPEYFVRGDLISFYG-OH; lactam N-8; C-terminus assumed), the values for the IC50 at integrin αvβ8 and on integrin αvβ6 (setting [2]) were 32 nM and 53 nM, respectively.
Taken in the same sequence, the figures for `CC[C@H](C)[C@@H]1NC(=O)[C@H](CCC(N)=O)NC(=O)CNC(=O)[C@H](CCCNC(=N)N)NC(=O)CNC(=O)CNC(=O)CC[C@@H](C(=O)N[C@@H](Cc2ccc(O)cc2)C(=O)N[C@@H](Cc2ccccc2)C(=O)N[C@H](C(=O)N[C@@H](CCCNC(=N)N)C(=O)NCC(=O)N[C@@H](CC(=O)O)C(=O)N[C@@H](CC(C)C)C(=O)N[C@@H](CCC(N)=O)C(=O)N[C@@H](CO)C(=O)N[C@@H](Cc2ccccc2)C(=O)N[C@@H](Cc2ccc(O)cc2)C(=O)NCC(=O)O)C(C)C)NC(=O)[C@@H]2CCCN2C1=O` [lassotide 42] (GGRGQIPEYFVRGDLQSFYG-OH; lactam N-8; C-terminus assumed) were 2.5 nM and 3 nM.
Taken in the same sequence, the figures for `CC[C@H](C)[C@@H]1NC(=O)[C@H](CO)NC(=O)CC[C@@H](C(=O)N[C@@H](CCCNC(=N)N)C(=O)NCC(=O)N[C@@H](CC(=O)O)C(=O)N[C@@H](CC(C)C)C(=O)N[C@@H](CCC(N)=O)C(=O)N[C@H](C(=O)N[C@@H](Cc2ccc(O)cc2)C(=O)N[C@@H](Cc2c[nH]c3ccccc23)C(=O)N2CCC[C@H]2C(=O)O)[C@@H](C)O)NC(=O)[C@H](CCCNC(=N)N)NC(=O)[C@H](CC(C)C)NC(=O)CNC(=O)[C@H](CO)NC(=O)[C@H](CC(=O)O)NC(=O)CNC1=O` [lassotide 18] (SIGDSGLRERGDLQTYWP-OH; lactam N-9; C-terminus assumed) were 2470 nM and 3200 nM.
For the compound `CC[C@H](C)[C@H](NC(=O)[C@H](CC(C)C)NC(=O)[C@H](CC(=O)O)NC(=O)CNC(=O)[C@H](CCCNC(=N)N)NC(=O)[C@@H](NC(=O)[C@H](Cc1ccccc1)NC(=O)[C@H](Cc1ccc(O)cc1)NC(=O)[C@@H]1CCC(=O)NCC(=O)NCC(=O)N[C@@H](CCCCNC(=O)CCOCCOCCNC(=O)CCCc2ccc(I)cc2)C(=O)NCC(=O)N[C@@H](Cc2c[nH]cn2)C(=O)N[C@@H](C(C)C)C(=O)N2CCC[C@H]2C(=O)N1)C(C)C)C(=O)N[C@@H](CO)C(=O)N[C@@H](Cc1ccccc1)C(=O)N[C@@H](Cc1ccc(O)cc1)C(=O)N[C@@H](CCCCNC(=O)CCOCCOCCNC(=O)CCCc1ccc(I)cc1)C(=O)O` [lassotide 52] (GGK([PEG2-Butanoyl(4-(4-I-phenyl))])GHVPEYFVRGDLISFYK([PEG2-Butanoyl(4-(4-I-phenyl))])-OH; lactam N-8), in data set [1] (52 vs 47, 10 mg/kg IP, mice), the “further increase in half-life” value is recorded as 4.4 fold. Also, the “Plasma Concentration” value in data set [1] (IP 10 mg/kg, 1.0 h, animal 1F001) is listed as 31600 ng/mL; in data set [1] (IP 10 mg/kg, 1.0 h, animal 1F002), 21000 ng/mL; in data set [1] (IP 10 mg/kg, 1.0 h, animal 1F003), 36300 ng/mL; in data set [1] (IP 10 mg/kg, 1.0 h, animal 1F005) it was 34200 ng/mL; in data set [1] (IP 10 mg/kg, 2.0 h, animal 1F001), 50800 ng/mL; in data set [1] (IP 10 mg/kg, 2.0 h, animal 1F002), 35000 ng/mL. Moreover, the “Plasma Concentration” value in data set [1] (IP 10 mg/kg, 2.0 h, animal 1F003) was determined as 53100 ng/mL; in data set [1] (IP 10 mg/kg, 2.0 h, animal 1F005) it was 40000 ng/mL; in data set [1] (IP 10 mg/kg, 4.0 h, animal 1F001), 54500 ng/mL; in data set [1] (IP 10 mg/kg, 4.0 h, animal 1F002), 51100 ng/mL; in data set [1] (IP 10 mg/kg, 4.0 h, animal 1F003), 59300 ng/mL; in data set [1] (IP 10 mg/kg, 4.0 h, animal 1F005) it was 43400 ng/mL. Moreover, the “Plasma Concentration” value is on record as 45300 ng/mL in data set [1] (IP 10 mg/kg, 8.0 h, animal 1F001); 43800 ng/mL in data set [1] (IP 10 mg/kg, 8.0 h, animal 1F002); 51000 ng/mL in data set [1] (IP 10 mg/kg, 8.0 h, animal 1F003); 35200 ng/mL in data set [1] (IP 10 mg/kg, 8.0 h, animal 1F005); 37900 ng/mL in data set [1] (IP 10 mg/kg, 12 h, animal 1F001); 43800 ng/mL in data set [1] (IP 10 mg/kg, 12 h, animal 1F002). In addition, the “Plasma Concentration” value is listed as 43800 ng/mL in data set [1] (IP 10 mg/kg, 12 h, animal 1F003); 30500 ng/mL in data set [1] (IP 10 mg/kg, 12 h, animal 1F005); 22500 ng/mL in data set [1] (IP 10 mg/kg, 24 h, animal 1F001); 24300 ng/mL in data set [1] (IP 10 mg/kg, 24 h, animal 1F002); 34800 ng/mL in data set [1] (IP 10 mg/kg, 24 h, animal 1F003); 19900 ng/mL in data set [1] (IP 10 mg/kg, 24 h, animal 1F005). Besides, the “Plasma Concentration” value in data set [1] (IP 10 mg/kg, 36 h, animal 1F001) is 16100 ng/mL; in data set [1] (IP 10 mg/kg, 36 h, animal 1F002) it was 17400 ng/mL; in data set [1] (IP 10 mg/kg, 36 h, animal 1F003), 22000 ng/mL; in data set [1] (IP 10 mg/kg, 36 h, animal 1F005), 13400 ng/mL; in data set [1] (IP 10 mg/kg, 48 h, animal 1F001) it was 11200 ng/mL; in data set [1] (IP 10 mg/kg, 48 h, animal 1F002) it was 12400 ng/mL. For the same compound, the “Plasma Concentration” value in data set [1] (IP 10 mg/kg, 48 h, animal 1F003) is reported as 13200 ng/mL; in data set [1] (IP 10 mg/kg, 48 h, animal 1F005), 7330 ng/mL. Further, the AUClast was 1290 µg·h/mL in data set [1] (setting [3]), 1330 µg·h/mL in data set [1] (setting [4]), 1610 µg·h/mL in data set [1] (setting [5]) and 1050 µg·h/mL in data set [1] (setting [6]). The CL/F in data set [1] (setting [3]) was 0.104 mL/min/kg; in data set [1] (setting [4]), 0.0981 mL/min/kg; in data set [1] (setting [5]), 0.0829 mL/min/kg; in data set [1] (setting [6]), 0.134 mL/min/kg; in data set [1] (setting [7]), 0.105 mL/min/kg. Further, the Cmax in data set [1] (setting [3]) was found to be 54500 ng/mL; in data set [1] (setting [4]), 51100 ng/mL; in data set [1] (setting [5]) it was 59300 ng/mL; in data set [1] (setting [6]), 43400 ng/mL; in data set [1] (setting [7]) it was 52100 ng/mL. The Tmax in data set [1] (setting [3]) came out at 4.0 h; in data set [1] (setting [4]) it was 4.0 h; in data set [1] (setting [5]), 4.0 h; in data set [1] (setting [6]), 4.0 h; in data set [1] (Table S3E: IP 10 mg/kg, female Balb/c mice, Mean N=4) it was 4.00 h; in data set [1] (setting [7]), 4 h. The Vz/F worked out at 0.179 L/kg in data set [1] (setting [3]), 0.176 L/kg in data set [1] (setting [4]), 0.151 L/kg in data set [1] (setting [5]) and 0.21 L/kg in data set [1] (setting [6]). The t1/2 in data set [1] (setting [3]) worked out at 20 h; in data set [1] (setting [4]) it was 21 h; in data set [1] (setting [5]), 21 h; in data set [1] (setting [6]) it was 18 h. In data set [1] (setting [7]), this compound showed an AUC(0-t) of 1320 µg·h/mL. For the same compound, the Vd/F in data set [1] (setting [7]) was 0.179 L/kg. The half-life in data set [1] (setting [7]) is 20 h. In data set [1] (setting [7]), this compound came in with a level at 1 h of 30800 ng/mL. Moreover, the level at 2 h in data set [1] (setting [7]) worked out at 44700 ng/mL. For the same compound, the level at 4 h in data set [1] (setting [7]) was 52100 ng/mL. Also, the level at 8 h in data set [1] (setting [7]) is 43800 ng/mL. Also, in data set [1] (setting [7]), the level at 12 h came out at 39000 ng/mL. In addition, the level at 24 h in data set [1] (setting [7]) came out at 25400 ng/mL. This compound also gave a level at 36 h in data set [1] (setting [7]) of 17200 ng/mL. This compound also yielded a level at 48 h in data set [1] (setting [7]) of 11000 ng/mL.
